Test results reported in PubChem BioAssay (NCI).
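All cell lines were grown in 96-well plates and treated with compound for 48 hours. GI50 is the concentration that inhibits growth by half. The concentration for full growth arrest is given as TGI.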

How the values were obtained:
Assay in all cases: NCI-60 cell line screen, 48 h
HOP-92 NSCLC = system: HOP-92 NSCLC
LOX IMVI melanoma = system: LOX IMVI melanoma
MOLT-4 leukemia = system: MOLT-4 leukemia
NCI/ADR-RES ovarian = system: NCI/ADR-RES ovarian
SN12C renal = system: SN12C renal
SK-MEL-5 melanoma = system: SK-MEL-5 melanoma
RPMI-8226 leukemia = system: RPMI-8226 leukemia
NCI-H23 lung = system: NCI-H23 lung
IGROV1 ovarian = system: IGROV1 ovarian
SR leukemia = system: SR leukemia
HCT-15 colon = system: HCT-15 colon
RXF 393 renal = system: RXF 393 renal
TK-10 renal = system: TK-10 renal
HT29 colon = system: HT29 colon
OVCAR-4 ovarian = system: OVCAR-4 ovarian
OVCAR-5 ovarian = system: OVCAR-5 ovarian
A549 NSCLC = system: A549 NSCLC
MDA-MB-435 = system: MDA-MB-435
M14 melanoma = system: M14 melanoma
NCI-H226 lung = system: NCI-H226 lung
SF-268 CNS = system: SF-268 CNS
SW-620 colon = system: SW-620 colon
UACC-62 melanoma = system: UACC-62 melanoma
UACC-257 melanoma = system: UACC-257 melanoma
U251 CNS = system: U251 CNS
CAKI-1 renal = system: CAKI-1 renal
HS 578T breast = system: HS 578T breast
SK-MEL-2 melanoma = system: SK-MEL-2 melanoma
A498 renal = system: A498 renal
NCI-H460 lung = system: NCI-H460 lung
786-0 renal = system: 786-0 renal
MCF7 breast = system: MCF7 breast
PC-3 prostate = system: PC-3 prostate
SNB-19 CNS = system: SNB-19 CNS
ACHN renal = system: ACHN renal
MDA-MB-231 breast = system: MDA-MB-231 breast
BT-549 breast = system: BT-549 breast
OVCAR-3 ovarian = system: OVCAR-3 ovarian
OVCAR-8 ovarian = system: OVCAR-8 ovarian
HCT-116 colon = system: HCT-116 colon
SK-MEL-28 melanoma = system: SK-MEL-28 melanoma
SNB-75 CNS = system: SNB-75 CNS
SK-OV-3 ovarian = system: SK-OV-3 ovarian
COLO 205 colon = system: COLO 205 colon
SF-295 CNS = system: SF-295 CNS
NCI-H522 lung = system: NCI-H522 lung
HL-60(TB) leukemia = system: HL-60(TB) leukemia
UO-31 renal = system: UO-31 renal
HCC-2998 colon = system: HCC-2998 colon
CCRF-CEM leukemia = system: CCRF-CEM leukemia
K-562 leukemia = system: K-562 leukemia
T-47D breast = system: T-47D breast
KM12 colon = system: KM12 colon
SF-539 CNS = system: SF-539 CNS
HOP-62 NSCLC = system: HOP-62 NSCLC
DU-145 prostate = system: DU-145 prostate
MALME-3M melanoma = system: MALME-3M melanoma

CN1CCN(c2ccc(C(=O)Nc3cc(-c4cccc(NS(=O)(=O)c5ccccc5)c4)[nH]n3)cc2)CC1 showed a GI50 (HOP-92 NSCLC) of 2.54 µM, a TGI (HOP-92 NSCLC) of 16.2 µM and a GI50 (LOX IMVI melanoma) of 3.05 µM. The TGI (LOX IMVI melanoma) was 13.2 µM, the GI50 (MOLT-4 leukemia) was 3 µM and the TGI (MOLT-4 leukemia) was 12.5 µM. It also gave a GI50 (NCI/ADR-RES ovarian) of over 100 µM, a TGI (NCI/ADR-RES ovarian) of over 100 µM and a GI50 (SN12C renal) of 7.82 µM. For the same molecule, the TGI (SN12C renal) was 24 µM, the GI50 (SK-MEL-5 melanoma) was 4.17 µM and the TGI (SK-MEL-5 melanoma) was 9.23 µM. For the same molecule, the GI50 (RPMI-8226 leukemia) was 3.33 µM, the TGI (RPMI-8226 leukemia) was 14.5 µM and the GI50 (NCI-H23 lung) was 11.6 µM. The TGI (NCI-H23 lung) was 35.2 µM, the GI50 (IGROV1 ovarian) was 2.64 µM and the TGI (IGROV1 ovarian) was 21.9 µM. The GI50 (SR leukemia) was 2 µM, the TGI (SR leukemia) was 5.33 µM and the GI50 (HCT-15 colon) was 12.3 µM. The TGI (HCT-15 colon) was 39.2 µM, the GI50 (RXF 393 renal) was 2.55 µM and the TGI (RXF 393 renal) was 12.5 µM. It also gave a GI50 (TK-10 renal) of 12.4 µM, a TGI (TK-10 renal) of 26.7 µM and a GI50 (HT29 colon) of 3.51 µM. For the same molecule, the TGI (HT29 colon) was 14.6 µM, the GI50 (OVCAR-4 ovarian) was 6.42 µM and the TGI (OVCAR-4 ovarian) was 28.7 µM. For the same molecule, the GI50 (OVCAR-5 ovarian) was 13.8 µM, the TGI (OVCAR-5 ovarian) was 46.6 µM and the GI50 (A549 NSCLC) was 7.85 µM. The TGI (A549 NSCLC) was 25.4 µM, the GI50 (MDA-MB-435) was 6.84 µM and the TGI (MDA-MB-435) was 22.3 µM. For the same molecule, the GI50 (M14 melanoma) was 6.13 µM, the TGI (M14 melanoma) was 20.3 µM and the GI50 (NCI-H226 lung) was 12.6 µM. For the same molecule, the TGI (NCI-H226 lung) was 40 µM, the GI50 (SF-268 CNS) was 5.51 µM and the TGI (SF-268 CNS) was 25.7 µM. The GI50 (SW-620 colon) was 5.86 µM, the TGI (SW-620 colon) was 27.2 µM and the GI50 (UACC-62 melanoma) was 11 µM. It also gave a TGI (UACC-62 melanoma) of 23.4 µM, a GI50 (UACC-257 melanoma) of 11.2 µM and a TGI (UACC-257 melanoma) of 27 µM. For the same molecule, the GI50 (U251 CNS) was 2.87 µM, the TGI (U251 CNS) was 18.7 µM and the GI50 (CAKI-1 renal) was 17.4 µM. It also gave a TGI (CAKI-1 renal) of 51.8 µM, a GI50 (HS 578T breast) of 1.7 µM and a TGI (HS 578T breast) of 10.4 µM. The GI50 (SK-MEL-2 melanoma) was 6.85 µM, the TGI (SK-MEL-2 melanoma) was 20.2 µM and the GI50 (A498 renal) was 0.505 µM. It also gave a TGI (A498 renal) of 9.75 µM, a GI50 (NCI-H460 lung) of 5.46 µM and a TGI (NCI-H460 lung) of 23.1 µM. For the same molecule, the GI50 (786-0 renal) was 4.8 µM, the TGI (786-0 renal) was 24.2 µM and the GI50 (MCF7 breast) was 3.25 µM. The TGI (MCF7 breast) was 16.9 µM, the GI50 (PC-3 prostate) was 10.2 µM and the TGI (PC-3 prostate) was 33.2 µM. For the same molecule, the GI50 (SNB-19 CNS) was 14.2 µM, the TGI (SNB-19 CNS) was 32.2 µM and the GI50 (ACHN renal) was 7.6 µM. For the same molecule, the TGI (ACHN renal) was 26.7 µM, the GI50 (MDA-MB-231 breast) was 3.53 µM and the TGI (MDA-MB-231 breast) was 12.2 µM. The GI50 (BT-549 breast) was 9.38 µM, the TGI (BT-549 breast) was 26.3 µM and the GI50 (OVCAR-3 ovarian) was 12.7 µM. It also gave a TGI (OVCAR-3 ovarian) of 25.8 µM, a GI50 (OVCAR-8 ovarian) of 13.4 µM and a TGI (OVCAR-8 ovarian) of 32.3 µM. It also gave a GI50 (HCT-116 colon) of 4.68 µM, a TGI (HCT-116 colon) of 17.4 µM and a GI50 (SK-MEL-28 melanoma) of 11.4 µM. It also gave a TGI (SK-MEL-28 melanoma) of 27 µM, a GI50 (SNB-75 CNS) of 1.61 µM and a TGI (SNB-75 CNS) of 11.1 µM. For the same molecule, the GI50 (SK-OV-3 ovarian) was 11.7 µM, the TGI (SK-OV-3 ovarian) was 30.9 µM and the GI50 (COLO 205 colon) was 4.28 µM. It also gave a TGI (COLO 205 colon) of 14.1 µM, a GI50 (SF-295 CNS) of 3.69 µM and a TGI (SF-295 CNS) of 20.9 µM. For the same molecule, the GI50 (NCI-H522 lung) was 3.29 µM, the TGI (NCI-H522 lung) was 13.2 µM and the GI50 (HL-60(TB) leukemia) was 3.94 µM. The TGI (HL-60(TB) leukemia) was 16.1 µM, the GI50 (UO-31 renal) was 6.26 µM and the TGI (UO-31 renal) was 27.8 µM. The GI50 (HCC-2998 colon) was 11.2 µM, the TGI (HCC-2998 colon) was 24.3 µM and the GI50 (CCRF-CEM leukemia) was 3.28 µM. It also gave a TGI (CCRF-CEM leukemia) of 42.3 µM, a GI50 (K-562 leukemia) of 2.89 µM and a TGI (K-562 leukemia) of 19.4 µM. It also gave a GI50 (T-47D breast) of 3.8 µM, a TGI (T-47D breast) of 18.6 µM and a GI50 (KM12 colon) of 0.0293 µM. The TGI (KM12 colon) was 13.8 µM, the GI50 (SF-539 CNS) was 1.79 µM and the TGI (SF-539 CNS) was 9.57 µM. The GI50 (HOP-62 NSCLC) was 6.61 µM, the TGI (HOP-62 NSCLC) was 30.2 µM and the GI50 (DU-145 prostate) was 8.52 µM. It also gave a TGI (DU-145 prostate) of 21.2 µM, a GI50 (MALME-3M melanoma) of 9.87 µM and a TGI (MALME-3M melanoma) of 26.7 µM.
